# Assay: Stability of artemisinin in presence of additives (heating in aqueous solution with glucose, 1H NMR quantification)
# Format: physicochemical
# Settings: glucose 1 mol equivalent, 93° C. for 90 minutes, open to the atmosphere
# From the text: Solvents were obtained from commercial suppliers and used without further purification. Dried leaves of Artemisia annua were obtained from ArtemiLife Corp. and Artemisinin was previously prepared and purified by crystallization using the protocols detailed in Horváth, Z.; Horosanskaia, E.; Lee, J. W.; Lorenz, H.; Gilmore, K.; Seeberger, P. H.; Seidel-Morgenstern, A. Recovery of Artemisinin from a Complex Reaction Mixture Using Continuous Chromatography and Crystallization. Org. Process Res. Dev. 2015, 19, 624-634. The Artemisinin crystals obtained thereby were ground prior to use.
# Ground coffee used in extractions was preground 100% Arabica beans from Café Intención. Coffee was prepared in a Rowenta C T 3818 Milano coffee maker using size 4 coffee filters (Melitta brand). Coffee beans (100% Arabica) were preground from. 100 g of ground coffee was added to the cone coffee filter in the machine and 1350 mL of water used to make the coffee using the single setting. Coffee was then transferred to a thermos, stored at room temperature, and used without further modification.
# Two solvents were tested, tap water and premade black coffee. […] All mixtures were heated to 93° C. for 90 minutes in 10 mL glass vials open to the atmosphere. Halfway through heating, 1-2 mL of tap water was added to compensate for evaporation. […]
smiles,measurement,setting,value
C[C@@H]1CC[C@H]2[C@@H](C)C(=O)O[C@@H]3O[C@@]4(C)CC[C@@H]1[C@]32OO4 [artemisinin],clean loss of artemisinin (1H NMR),Example 1 (for comparison): 5 mL tap water,32%
same,clean loss of artemisinin (1H NMR),Example 2 (inventive): 5 mL premade black coffee (source of chlorogenic acids),19%

# From patent publication US20230241023A1, “STABILIZATION OF 1,2,4-TRIOXANE COMPOUNDS BY CHLOROGENIC ACIDS” (Artemiflow GmbH, priority 2020, published 2023)
